Laboratory results from the supplement of paper PMC10307832.

Assays:
Assay in all cases: relative viability (nuclei count vs DMSO), 5 days (fraction); higher = more cells survive
[1] = compound: Nc1ccn([C@@H]2O[C@H](CO)[C@@H](O)C2(F)F)c(=O)n1 [Gemcitabine] + CCNC(=O)c1noc(-c2cc(C(C)C)c(O)cc2O)c1-c1ccc(CN2CCOCC2)cc1 [Luminespib] (partner 0.01 µM)
In short: (§1)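 Nuclei were stained with Hoechst during a one-step fixation (final 0.05% Triton X-100, 1% formaldehyde, 1 ug/ml Hoechst) carried out 5 days after dosing, then counted on 4× images. The cells, lung cancer lines in 1536-well plates, had been dosed by pin tool the day after seeding with one drug alone or a fixed anchor-drug dose plus five library-drug doses (not always all listed) in √10 steps. Relative viability is the nuclei count in treated wells divided by that in vehicle wells, and each value is the median of duplicate plates.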

[2] = compound: Nc1ccn([C@@H]2O[C@H](CO)[C@@H](O)C2(F)F)c(=O)n1 [Gemcitabine] + CS(=O)(=O)CCNCc1ccc(-c2ccc3ncnc(Nc4ccc(OCc5cccc(F)c5)c(Cl)c4)c3c2)o1 [Lapatinib] (partner 2 µM)
In short: as §1

[3] = compound: Nc1ccn([C@@H]2O[C@H](CO)[C@@H](O)C2(F)F)c(=O)n1 [Gemcitabine] + Nc1ncn([C@H]2C[C@H](O)[C@@H](CO)O2)c(=O)n1 [Decitabine] (partner 2 µM)
In short: as §1

[4] = compound: Nc1ccn([C@@H]2O[C@H](CO)[C@@H](O)C2(F)F)c(=O)n1 [Gemcitabine] + O=C(c1cc(Cc2n[nH]c(=O)c3ccccc23)ccc1F)N1CCN(C(=O)C2CC2)CC1 [Olaparib] (partner 8 µM)
In short: as §1

NCI-H838
relative viability ([1]; first compound 0.001 µM): 0.286
relative viability ([1]; first compound 0.003162 µM): 0.289
relative viability ([1]; first compound 0.01 µM): 0.241
relative viability ([1]; first compound 0.03162 µM): 0.292
relative viability ([1]; first compound 0.1 µM): 0.18
relative viability ([2]; first compound 0.001 µM): 1.02
relative viability ([2]; first compound 0.003162 µM): 1.22
relative viability ([2]; first compound 0.01 µM): 0.923
relative viability ([2]; first compound 0.03162 µM): 0.282
relative viability ([2]; first compound 0.1 µM): 0.103
relative viability ([3]; first compound 0.001 µM): 0.442
relative viability ([3]; first compound 0.003162 µM): 0.485
relative viability ([3]; first compound 0.01 µM): 0.365
relative viability ([3]; first compound 0.03162 µM): 0.281
relative viability ([3]; first compound 0.1 µM): 0.187
relative viability ([4]; first compound 0.001 µM): 0.787
relative viability ([4]; first compound 0.003162 µM): 0.842
relative viability ([4]; first compound 0.01 µM): 0.534
relative viability ([4]; first compound 0.03162 µM): 0.282
relative viability ([4]; first compound 0.1 µM): 0.12

SW 1573
relative viability ([1]; first compound 0.001 µM): 0.192
relative viability ([1]; first compound 0.003162 µM): 0.166
relative viability ([1]; first compound 0.01 µM): 0.0849
relative viability ([1]; first compound 0.03162 µM): 0.154
relative viability ([1]; first compound 0.1 µM): 0.112
relative viability ([2]; first compound 0.001 µM): 1.07
relative viability ([2]; first compound 0.003162 µM): 0.994
relative viability ([2]; first compound 0.01 µM): 0.681
relative viability ([2]; first compound 0.03162 µM): 0.148
relative viability ([2]; first compound 0.1 µM): 0.082
relative viability ([3]; first compound 0.001 µM): 0.529
relative viability ([3]; first compound 0.003162 µM): 0.158
relative viability ([3]; first compound 0.01 µM): 0.113
relative viability ([3]; first compound 0.03162 µM): 0.0711
relative viability ([3]; first compound 0.1 µM): 0.0511
relative viability ([4]; first compound 0.001 µM): 0.413
relative viability ([4]; first compound 0.003162 µM): 0.295
relative viability ([4]; first compound 0.01 µM): 0.0949
relative viability ([4]; first compound 0.03162 µM): 0.102
relative viability ([4]; first compound 0.1 µM): 0.0546

PC-14
relative viability ([1]; first compound 0.001 µM): 0.155
relative viability ([1]; first compound 0.003162 µM): 0.135
relative viability ([1]; first compound 0.01 µM): 0.132
relative viability ([1]; first compound 0.03162 µM): 0.08
relative viability ([1]; first compound 0.1 µM): 0.109
relative viability ([2]; first compound 0.001 µM): 0.323
relative viability ([2]; first compound 0.003162 µM): 0.234
relative viability ([2]; first compound 0.01 µM): 0.203
relative viability ([2]; first compound 0.03162 µM): 0.0925
relative viability ([2]; first compound 0.1 µM): 0.0562
relative viability ([3]; first compound 0.001 µM): 0.217
relative viability ([3]; first compound 0.003162 µM): 0.0953
relative viability ([3]; first compound 0.01 µM): 0.0507
relative viability ([3]; first compound 0.03162 µM): 0.0388
relative viability ([3]; first compound 0.1 µM): 0.0405
relative viability ([4]; first compound 0.001 µM): 0.256
relative viability ([4]; first compound 0.003162 µM): 0.13
relative viability ([4]; first compound 0.01 µM): 0.0358
relative viability ([4]; first compound 0.03162 µM): 0.0472
relative viability ([4]; first compound 0.1 µM): 0.0357

LK-2
relative viability ([1]; first compound 0.001 µM): 0.186
relative viability ([1]; first compound 0.003162 µM): 0.245
relative viability ([1]; first compound 0.01 µM): 0.173
relative viability ([1]; first compound 0.03162 µM): 0.178
relative viability ([1]; first compound 0.1 µM): 0.164
relative viability ([2]; first compound 0.001 µM): 0.977
relative viability ([2]; first compound 0.003162 µM): 0.692
relative viability ([2]; first compound 0.01 µM): 0.817
relative viability ([2]; first compound 0.03162 µM): 0.329
relative viability ([2]; first compound 0.1 µM): 0.249
relative viability ([3]; first compound 0.001 µM): 0.242
relative viability ([3]; first compound 0.003162 µM): 0.23
relative viability ([3]; first compound 0.01 µM): 0.204
relative viability ([3]; first compound 0.03162 µM): 0.109
relative viability ([3]; first compound 0.1 µM): 0.128
relative viability ([4]; first compound 0.001 µM): 0.878
relative viability ([4]; first compound 0.003162 µM): 0.722
relative viability ([4]; first compound 0.01 µM): 0.386
relative viability ([4]; first compound 0.03162 µM): 0.153
relative viability ([4]; first compound 0.1 µM): 0.148

HCC-78
relative viability ([2]; first compound 0.001 µM): 0.695
relative viability ([2]; first compound 0.003162 µM): 0.485
relative viability ([2]; first compound 0.01 µM): 0.146
relative viability ([2]; first compound 0.03162 µM): 0.272
relative viability ([2]; first compound 0.1 µM): 0.168
relative viability ([3]; first compound 0.001 µM): 0.622
relative viability ([3]; first compound 0.003162 µM): 0.651
relative viability ([3]; first compound 0.01 µM): 0.367
relative viability ([3]; first compound 0.03162 µM): 0.343
relative viability ([3]; first compound 0.1 µM): 0.268
relative viability ([4]; first compound 0.001 µM): 0.715
relative viability ([4]; first compound 0.003162 µM): 0.335
relative viability ([4]; first compound 0.01 µM): 0.213
relative viability ([4]; first compound 0.03162 µM): 0.21
relative viability ([4]; first compound 0.1 µM): 0.181

HCC-366
relative viability ([2]; first compound 0.001 µM): 0.954
relative viability ([2]; first compound 0.003162 µM): 1.19
relative viability ([2]; first compound 0.01 µM): 0.546
relative viability ([2]; first compound 0.03162 µM): 0.0287
relative viability ([2]; first compound 0.1 µM): 0.0142
relative viability ([3]; first compound 0.001 µM): 0.329
relative viability ([3]; first compound 0.003162 µM): 0.331
relative viability ([3]; first compound 0.01 µM): 0.0609
relative viability ([3]; first compound 0.03162 µM): 0.0417
relative viability ([3]; first compound 0.1 µM): 0.0234
relative viability ([4]; first compound 0.001 µM): 0.332
relative viability ([4]; first compound 0.003162 µM): 0.389
relative viability ([4]; first compound 0.01 µM): 0.124
relative viability ([4]; first compound 0.03162 µM): 0.0348
relative viability ([4]; first compound 0.1 µM): 0.0152

LCLC-103H
relative viability ([1]; first compound 0.001 µM): 0.956
relative viability ([1]; first compound 0.003162 µM): 1.01
relative viability ([1]; first compound 0.01 µM): 0.845
relative viability ([1]; first compound 0.03162 µM): 0.314
relative viability ([1]; first compound 0.1 µM): 0.183
relative viability ([3]; first compound 0.001 µM): 0.694
relative viability ([3]; first compound 0.003162 µM): 0.738
relative viability ([3]; first compound 0.01 µM): 0.715
relative viability ([3]; first compound 0.03162 µM): 0.674
relative viability ([3]; first compound 0.1 µM): 0.57
relative viability ([4]; first compound 0.001 µM): 0.771
relative viability ([4]; first compound 0.003162 µM): 0.758
relative viability ([4]; first compound 0.01 µM): 0.734
relative viability ([4]; first compound 0.03162 µM): 0.58
relative viability ([4]; first compound 0.1 µM): 0.367

NCI-H1563
relative viability ([1]; first compound 0.001 µM): 0.522
relative viability ([1]; first compound 0.003162 µM): 0.549
relative viability ([1]; first compound 0.01 µM): 0.585
relative viability ([1]; first compound 0.03162 µM): 0.483
relative viability ([1]; first compound 0.1 µM): 0.441
relative viability ([2]; first compound 0.001 µM): 1.01
relative viability ([2]; first compound 0.003162 µM): 1.19
relative viability ([2]; first compound 0.01 µM): 0.901
relative viability ([2]; first compound 0.03162 µM): 0.704
relative viability ([2]; first compound 0.1 µM): 0.612

EBC-1
relative viability ([2]; first compound 0.001 µM): 0.15
relative viability ([2]; first compound 0.003162 µM): 0.187
relative viability ([2]; first compound 0.01 µM): 0.176
relative viability ([2]; first compound 0.03162 µM): 0.181
relative viability ([2]; first compound 0.1 µM): 0.167
relative viability ([4]; first compound 0.001 µM): 0.73
relative viability ([4]; first compound 0.003162 µM): 0.195
relative viability ([4]; first compound 0.01 µM): 0.141
relative viability ([4]; first compound 0.03162 µM): 0.116
relative viability ([4]; first compound 0.1 µM): 0.107

Calu-6
relative viability ([2]; first compound 0.001 µM): 1.03
relative viability ([2]; first compound 0.003162 µM): 0.799
relative viability ([2]; first compound 0.01 µM): 0.348
relative viability ([2]; first compound 0.03162 µM): 0.167
relative viability ([2]; first compound 0.1 µM): 0.126
relative viability ([4]; first compound 0.001 µM): 0.529
relative viability ([4]; first compound 0.003162 µM): 0.465
relative viability ([4]; first compound 0.01 µM): 0.24
relative viability ([4]; first compound 0.03162 µM): 0.119
relative viability ([4]; first compound 0.1 µM): 0.0919
